One assay has as its target T1, Human-SGLT2 (Homo sapiens, UniProt P31639).
T1 sequence (P31639 1-672): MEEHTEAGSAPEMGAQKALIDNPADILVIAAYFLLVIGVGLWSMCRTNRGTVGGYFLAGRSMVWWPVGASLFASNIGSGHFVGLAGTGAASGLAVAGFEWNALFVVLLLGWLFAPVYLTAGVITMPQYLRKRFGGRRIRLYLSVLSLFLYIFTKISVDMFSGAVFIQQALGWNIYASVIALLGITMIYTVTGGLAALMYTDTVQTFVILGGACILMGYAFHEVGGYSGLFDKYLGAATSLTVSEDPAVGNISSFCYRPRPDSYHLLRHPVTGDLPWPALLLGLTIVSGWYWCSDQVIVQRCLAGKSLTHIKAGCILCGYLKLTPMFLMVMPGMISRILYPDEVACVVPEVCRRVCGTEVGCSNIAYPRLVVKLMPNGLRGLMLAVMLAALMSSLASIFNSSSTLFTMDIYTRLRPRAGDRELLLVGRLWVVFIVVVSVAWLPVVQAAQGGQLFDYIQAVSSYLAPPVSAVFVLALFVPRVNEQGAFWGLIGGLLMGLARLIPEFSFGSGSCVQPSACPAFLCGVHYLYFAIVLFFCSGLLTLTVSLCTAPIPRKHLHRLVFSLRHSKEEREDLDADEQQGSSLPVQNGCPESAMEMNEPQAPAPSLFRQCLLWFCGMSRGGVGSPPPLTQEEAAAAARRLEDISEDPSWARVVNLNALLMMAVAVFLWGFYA
Nature of the assay: SGLT2 glucose transport assay ([14C]-labeled glucose uptake). The following applies: cells stably expressing Human-SGLT2, 37° C., 2 hours. In kind it is cell-based. The protocol:
To test the effect of compounds on the glucose transport activity of SGLT2 transporters by measuring the amount of [^14C]-labeled glucose entering highly expressed Human-SGLT2 cells.
The cells stably expressing Human-SGLT2 used for the experiments were constructed by WuXi AppTec Shanghai. SGLT2 cells were plated in 96-well cell culture plates (Greiner) and cultured overnight at 5% CO2, 37° C.
Experimental buffer: 10 mM 4-hydroxyethylpiperazine ethanesulfonic acid (HEPES), 1.2 mM magnesium chloride (MgCl2), 4.7 mM potassium chloride (KCl), 2.2 mM calcium chloride (CaCl2) and 120 mM sodium chloride (NaCl).
Termination buffer: 10 mM 4-hydroxyethylpiperazine ethanesulfonic acid (HEPES), 1.2 mM magnesium chloride (MgCl2), 4.7 mM potassium chloride (KCl), 2.2 mM calcium chloride (CaCl2), 120 mM sodium chloride (NaCl) and 1 μM LX4211.
The compounds were diluted with 100% dimethyl sulfoxide (DMSO) at a starting concentration of 10 μM, 8 points of 5-fold serial gradient dilution was made.
6 μM [^14C]-labeled methyl α-D-glucopyranoside was prepared with experimental buffer.
Cells were treated with 49 μL of experimental buffer, 1 μL of gradient-diluted compound, and 50 μL of 6 μM [^14C]-isotope-labeled glucose solution at 37° C. for 2 hours.
The liquid in the wells was aspirated and the cells were washed 3 times with termination buffer.
The cells were lysed with 50 μL of 10% sodium hydroxide solution, and the cell lysate was aspirated into a scintillation tube, and 2 mL of scintillation solution was added.
Readings were taken with an isotope detector (Tricarb).
The data were calculated by GraphPad Prism 5.0 software using the formula: log (inhibitor) vs. response—Variable slope to obtain the IC50 values of the tested compounds, and the experimental results are shown in Table 5.

The target in assay [1] is recombinant human dipeptidyl peptidase 4 (rhDPP4) (Homo sapiens, UniProt P27487). Nature of the assay: rhDPP4 inhibitor screening experiment. In kind it is biochemical. The settings on record: Gly-Pro-aminofluorescein substrate, 1 hour at room temperature. An excerpt:
To evaluate the inhibitory activity of compounds against recombinant human dipeptidyl peptidase 4 (rhDPP4) by measuring the half-inhibitory concentration (IC50) values of the compounds. In the experiment, rhDPP4 was used to catalyze the generation of […] from substrate, the substrate was a luminescent precursor […], and the substrate and luciferase were reacted to generate a light signal, the intensity of the light signal was proportional to the enzyme activity.
• 1) The gradient diluted compounds (4-fold fold-dilution, 10 assay concentrations) were transferred 250 nL into a 384-well plate (PerkingElmer-6007299) using a non-contact nano-acoustic pipetting system (ECHO), and dimethyl sulfoxide (DMSO) concentration was 0.5% in the final reaction system. Blank control wells (containing DMSO, substrate and 10 mM Tris-HCl) and positive control wells (containing DMSO, substrate and rhDPP4) were set up. • 2) The pre-dispensed frozen buffer containing luciferase was removed and restored to room temperature, and then the substrate was added to configure a working solution with a substrate concentration of 20 μM. RhDPP4 was prepared as a working solution of 0.2 ng/mL using 10 mM Tris-HCl (pH 8.0) aqueous solution. • 3) 25 μL of working solution containing 20 μM substrate and 25 μL of working solution containing 0.2 ng/mL rhDPP4 were added to a 384-well plate with the addition of the compound, then the mixture was centrifuged for 30 s at 1000 rpm, the plate was sealed with aluminum foil sealing film and incubated for 1 hour at room temperature. • 4) The intensity of the light signal was detected by EnVision, a multifunctional microplate reader. The raw data were used to calculate the inhibition of rhDPP4 activity by the compound. % of inhibition activity=100−(compound well signal value−blank control well signal value)/(positive control well signal value−blank control well signal value)*100. • The percent of inhibition was imported into GraphPad Prism software for data processing to derive the corresponding dose-effect curves and to derive the IC50 values of the tested compounds.

Molecules are shown by their SMILES.

Chain of recombinant human dipeptidyl peptidase 4 (rhDPP4) (P27487 whole entry): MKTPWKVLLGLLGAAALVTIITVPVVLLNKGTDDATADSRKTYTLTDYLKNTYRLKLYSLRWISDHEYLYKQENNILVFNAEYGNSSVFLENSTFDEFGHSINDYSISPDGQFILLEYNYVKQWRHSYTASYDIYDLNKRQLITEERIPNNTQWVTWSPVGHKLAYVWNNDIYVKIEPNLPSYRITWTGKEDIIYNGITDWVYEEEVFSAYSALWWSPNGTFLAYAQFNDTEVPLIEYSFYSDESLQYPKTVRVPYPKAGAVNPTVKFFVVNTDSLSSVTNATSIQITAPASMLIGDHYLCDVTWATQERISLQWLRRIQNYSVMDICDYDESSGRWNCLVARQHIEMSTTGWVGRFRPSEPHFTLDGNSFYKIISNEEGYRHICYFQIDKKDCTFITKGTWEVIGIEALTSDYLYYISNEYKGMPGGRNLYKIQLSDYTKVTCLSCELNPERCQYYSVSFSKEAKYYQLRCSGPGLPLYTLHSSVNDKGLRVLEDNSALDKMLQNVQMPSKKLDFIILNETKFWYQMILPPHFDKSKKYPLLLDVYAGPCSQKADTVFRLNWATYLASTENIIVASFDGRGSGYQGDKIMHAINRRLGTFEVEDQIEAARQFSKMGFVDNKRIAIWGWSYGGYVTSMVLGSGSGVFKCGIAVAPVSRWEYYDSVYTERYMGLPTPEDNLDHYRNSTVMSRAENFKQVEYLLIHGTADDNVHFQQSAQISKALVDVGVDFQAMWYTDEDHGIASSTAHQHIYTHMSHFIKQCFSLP

Turning to `CS[C@H]1O[C@@H](c2ccc(F)c(Cc3ccc(O[C@@H]4CCN([C@H]5CO[C@H](c6cc(F)ccc6F)[C@@H](N)C5)C4)cc3)c2)[C@H](O)[C@@H](O)[C@@H]1O` [WX001], the figures for the IC50 (at Human-SGLT2; in assay [1]) were 21.8 nM and 31 nM, respectively.
`CS[C@H]1O[C@@H](c2cc(Cc3ccc(O[C@@H]4CCN([C@H]5CO[C@H](c6cc(F)ccc6F)[C@@H](N)C5)C4)cc3)c(F)cc2F)[C@H](O)[C@@H](O)[C@@H]1O` [WX006]: the IC50 against Human-SGLT2 is 7.02 nM; in assay [1] it was 26.9 nM.

The record behind these values is patent US12421269B2, “SGLT2/DPP4 inhibitor and application thereof” (CGeneTech (Suzhou, China) CO., Ltd., priority 2019, dated 2025).
